Assay results taken from patent publication US20120220603A1, “SUBSTITUTED HETEROCYCLIC DERIVATIVES FOR THE TREATMENT OF PAIN AND EPILEPSY” (ZALICUS PHARMACEUTICALS LTD., priority 2009, published 2012).
Blank lines part the entries; values can stand above or below the molecule they belong to.

How the values were obtained:
[1] = target: T1, CaV3.2 T-type Ca2+ channels expressed in HEK cells (Homo sapiens, UniProt O95180); assay: CaV3.2 voltage-clamp electrophysiological assay (fast and slow inactivation); format: cell-based
T1 construct: expressed in transfected cells; host or cells: HEK cells
Excerpt: Prior to recording currents from CaV3.2 T-type Ca^2+ channels expressed in HEK cells, the culture media was replaced with extracellular solution (ECS) containing (in mM): 142 CsCl, 10 D-glucose, 2 CaCl2, 1 MgCl2, 10 HEPES, pH adjusted to 7.4 with CsOH. Borosilicate glass patch pipettes, pulled on a P-97 micropipette puller (Sutter Instruments, Novato, Calif.) with typical resistances of 2-4 MW, were backfilled with intracellular solution containing (in mM): 126.5 Cs-methanesulphonate, 2 MgCl2, 10 HEPES, 11 EGTA, 2 Na-ATP, pH adjusted to 7.3 CsOH. […] were recorded in the whole-cell configuration at room temperature (˜21° C.) using an Axopatch 200B (Molecular Devices, Sunnyvale, Calif.) patch-clamp amplifier. Recordings were low-pass filtered at 1 kHz (−3 dB 4-pole Bessel filter), digitized at 2 kHz with a Digidata 1322A interface (Molecular Devices), and acquired using pClamp 9.2 (Molecular Devices). No leak subtraction was used. Test compounds, prepared as 30 mM stock solutions in DMSO and diluted in extracellular buffer, were applied through a gravity driven multi-barrelled array of capillaries (24 gauge) connected to reservoirs controlled by solenoid valves. The effects of compounds on CaV3.2 slow and fast inactivation were evaluated using four different voltage protocols. The voltage dependence of fast and slow channel inactivation was examined using a two pulse protocol. Data were analyzed and fitted using OriginPro v.7.5 (OriginLab, Northampton, Mass.) software.

[2] = test system: Rat SNL tactile allodynia; assay: L5/L6 spinal nerve ligation (SNL) Chung pain model, tactile allodynia (von Frey); format: in vivo
Excerpt: The Spinal Nerve Ligation is an animal model representing peripheral nerve injury generating a neuropathic pain syndrome. In this model experimental animals develop the clinical symptoms of tactile allodynia and hyperalgesia. L5/L6 Spinal nerve ligation (SNL) injury was induced using the procedure of Kim and Chung (Kim et al., Pain 50:355-363 (1992)) in male Sprague-Dawley rats (Harlan; Indianapolis, Ind.) weighing 200 to 250 grams.
Anaesthesia was induced with 2% isofluorane in O2 at 2 L/min and maintained with 0.5% isofluorane in O2. Rats were then shaved and aseptically prepared for surgeries. A 2 cm paraspinal incision was made at the level of L4-S2. L4/L5 was exposed by removing the transverse process above the nerves with a small rongeur. The L5 spinal nerve is the larger of the two visible nerves below the transverse process and lies closest to the spine. The L6 spinal nerve is located beneath the corner of the slope bone. A home-made glass Chung rod was used to hook L5 or L6 and a pre-made slip knot of 4.0 silk suture was placed on the tip of the rod just above the nerve and pulled underneath to allow for the tight ligation. The L5 and L6 spinal nerves were tightly ligated distal to the dorsal root ganglion. The incision was closed, and the animals were allowed to recover for 5 days.
Sham control rats underwent the same operation and handling as the experimental animals, but without SNL.
Prior to initiating drug delivery, baseline behavioural testing data is obtained. At selected times after infusion of the Test or Control Article behavioural data can then be collected again.
The assessment of tactile allodynia consisted of measuring the withdrawal threshold of the paw ipsilateral to the site of nerve injury in response to probing with a series of calibrated von Frey filaments (innocuous stimuli). Animals were acclimated to the suspended wire-mesh cages for 30 min before testing. Each von Frey filament was applied perpendicularly to the plantar surface of the ligated paw of rats for 5 sec. A positive response was indicated by a sharp withdrawal of the paw. For rats, the first testing filament is 4.31. Measurements were taken before and after administration of test articles. […] The protocol was repeated until three changes in behaviour were determined (“up and down” method) (Chaplan et al., J. Neurosci. Methods 53:55-63 (1994)). The 50% paw withdrawal threshold was determined as (10^[Xf+kδ])/10,000, where Xf=the value of the last von Frey filament employed, k=Dixon value for the positive/negative pattern, and S=the logarithmic difference between stimuli. The cut-off values for rats were no less than 0.2 g and no higher than 15 g (5.18 filament); for mice no less than 0.03 g and no higher than 2.34 g (4.56 filament). A significant drop of the paw withdrawal threshold compared to the pre-treatment baseline is considered tactile allodynia. […]

[3] = target: T2, NaV1.7 channels expressed in HEK cells (Homo sapiens, UniProt Q15858); assay: NaV1.7 voltage-clamp electrophysiological assay (enhancement of slow inactivation); format: cell-based
T2 construct: expressed in transfected cells; host or cells: HEK cells
Description: To examine the effects of compounds on enhancement of slow inactivation of NaV1.7 and NaV1.8 channels expressed in HEK cells the culture media was replaced with an extracellular solution containing (in mM): 137 NaCl, 4 KCl, 1.8 CaCl2, 1 MgCl2, 10 HEPES, 10 glucose, pH adjusted to 7.4 with NaOH. The intracellular solution contained (in mM): 130 KCl, 1 MgCl2, 5 EGTA, 10 HEPES, 5 K2ATP, adjusted to pH 7.3 with KOH. Whole-cell recordings, preparation and application of test compounds were performed in a similar manner to the CaV3.2 electrophysiological assays. Voltage protocols were applied to quantify the effects of test compounds to enhance slow inactivation for NaV1.7 and NaV1.8.

[4] = Rat Early Pharmacokinetic (EPK) study; format: in vivo; settings: PO, 30 mg/kg, formulation 10% DMSO/90% CMC; for Tmax: male, Sprague-Dawley, blood
Description: Male Sprague-Dawley rats were dosed via oral (PO) gavage in the detailed formulation. Blood samples were collected from the animals at 6 timepoints out to 4 hours post-dose. Pharmacokinetic analysis was performed on the LC-MS/MS measured concentrations for each timepoint of each compound.

[5] = voltage-dependence of half inactivation, HEK cells, whole-cell

T2 sequence (Q15858 whole entry): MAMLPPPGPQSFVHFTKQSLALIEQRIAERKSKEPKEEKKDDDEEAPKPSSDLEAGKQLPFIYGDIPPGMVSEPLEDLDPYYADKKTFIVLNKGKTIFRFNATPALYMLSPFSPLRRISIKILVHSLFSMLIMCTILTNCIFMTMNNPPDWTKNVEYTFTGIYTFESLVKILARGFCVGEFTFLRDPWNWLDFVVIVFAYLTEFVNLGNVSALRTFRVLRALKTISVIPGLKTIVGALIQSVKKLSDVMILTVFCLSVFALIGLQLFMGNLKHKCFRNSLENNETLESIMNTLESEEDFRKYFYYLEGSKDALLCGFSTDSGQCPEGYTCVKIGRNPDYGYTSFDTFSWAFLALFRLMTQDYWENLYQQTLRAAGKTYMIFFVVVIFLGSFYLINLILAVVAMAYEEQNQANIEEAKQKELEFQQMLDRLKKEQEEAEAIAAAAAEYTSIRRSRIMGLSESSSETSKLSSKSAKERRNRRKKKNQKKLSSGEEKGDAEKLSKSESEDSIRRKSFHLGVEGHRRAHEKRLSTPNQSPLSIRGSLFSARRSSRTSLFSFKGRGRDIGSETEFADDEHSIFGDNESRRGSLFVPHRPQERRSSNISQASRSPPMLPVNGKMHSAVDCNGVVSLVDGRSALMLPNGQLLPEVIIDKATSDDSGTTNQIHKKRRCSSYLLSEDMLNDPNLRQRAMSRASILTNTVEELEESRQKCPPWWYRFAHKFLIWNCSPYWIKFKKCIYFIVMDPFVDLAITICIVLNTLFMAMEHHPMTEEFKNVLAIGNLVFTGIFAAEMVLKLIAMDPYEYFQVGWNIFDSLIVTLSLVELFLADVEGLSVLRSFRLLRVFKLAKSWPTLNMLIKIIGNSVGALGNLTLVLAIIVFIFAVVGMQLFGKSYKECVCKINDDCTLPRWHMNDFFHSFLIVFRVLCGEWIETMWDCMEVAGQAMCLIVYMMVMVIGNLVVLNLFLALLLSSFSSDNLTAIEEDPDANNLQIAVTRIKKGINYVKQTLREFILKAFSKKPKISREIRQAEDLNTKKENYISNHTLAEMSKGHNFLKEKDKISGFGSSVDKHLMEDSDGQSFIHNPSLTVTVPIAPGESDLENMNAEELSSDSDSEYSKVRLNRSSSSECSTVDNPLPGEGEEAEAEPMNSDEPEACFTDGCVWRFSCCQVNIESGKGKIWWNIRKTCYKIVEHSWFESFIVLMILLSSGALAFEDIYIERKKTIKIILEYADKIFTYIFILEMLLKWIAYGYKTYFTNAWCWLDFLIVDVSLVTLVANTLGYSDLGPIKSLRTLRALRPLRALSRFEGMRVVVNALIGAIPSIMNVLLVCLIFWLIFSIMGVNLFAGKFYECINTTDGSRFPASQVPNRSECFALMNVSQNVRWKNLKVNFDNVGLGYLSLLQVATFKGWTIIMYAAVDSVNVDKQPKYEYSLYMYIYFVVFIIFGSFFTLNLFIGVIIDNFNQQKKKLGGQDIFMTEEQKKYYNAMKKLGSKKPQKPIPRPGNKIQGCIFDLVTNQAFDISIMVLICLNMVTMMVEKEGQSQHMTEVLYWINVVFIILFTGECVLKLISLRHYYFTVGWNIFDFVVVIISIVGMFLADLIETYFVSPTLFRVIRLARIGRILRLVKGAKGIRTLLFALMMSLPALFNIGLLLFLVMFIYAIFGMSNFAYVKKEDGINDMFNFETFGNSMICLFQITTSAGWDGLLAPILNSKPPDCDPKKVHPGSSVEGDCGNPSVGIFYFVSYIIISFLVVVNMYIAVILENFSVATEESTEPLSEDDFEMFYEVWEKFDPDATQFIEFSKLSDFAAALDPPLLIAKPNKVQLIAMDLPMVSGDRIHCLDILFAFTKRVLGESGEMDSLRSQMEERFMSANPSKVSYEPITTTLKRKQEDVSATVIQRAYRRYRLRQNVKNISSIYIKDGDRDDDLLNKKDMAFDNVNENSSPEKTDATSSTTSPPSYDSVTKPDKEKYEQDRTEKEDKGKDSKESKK
T1 sequence (O95180 whole entry): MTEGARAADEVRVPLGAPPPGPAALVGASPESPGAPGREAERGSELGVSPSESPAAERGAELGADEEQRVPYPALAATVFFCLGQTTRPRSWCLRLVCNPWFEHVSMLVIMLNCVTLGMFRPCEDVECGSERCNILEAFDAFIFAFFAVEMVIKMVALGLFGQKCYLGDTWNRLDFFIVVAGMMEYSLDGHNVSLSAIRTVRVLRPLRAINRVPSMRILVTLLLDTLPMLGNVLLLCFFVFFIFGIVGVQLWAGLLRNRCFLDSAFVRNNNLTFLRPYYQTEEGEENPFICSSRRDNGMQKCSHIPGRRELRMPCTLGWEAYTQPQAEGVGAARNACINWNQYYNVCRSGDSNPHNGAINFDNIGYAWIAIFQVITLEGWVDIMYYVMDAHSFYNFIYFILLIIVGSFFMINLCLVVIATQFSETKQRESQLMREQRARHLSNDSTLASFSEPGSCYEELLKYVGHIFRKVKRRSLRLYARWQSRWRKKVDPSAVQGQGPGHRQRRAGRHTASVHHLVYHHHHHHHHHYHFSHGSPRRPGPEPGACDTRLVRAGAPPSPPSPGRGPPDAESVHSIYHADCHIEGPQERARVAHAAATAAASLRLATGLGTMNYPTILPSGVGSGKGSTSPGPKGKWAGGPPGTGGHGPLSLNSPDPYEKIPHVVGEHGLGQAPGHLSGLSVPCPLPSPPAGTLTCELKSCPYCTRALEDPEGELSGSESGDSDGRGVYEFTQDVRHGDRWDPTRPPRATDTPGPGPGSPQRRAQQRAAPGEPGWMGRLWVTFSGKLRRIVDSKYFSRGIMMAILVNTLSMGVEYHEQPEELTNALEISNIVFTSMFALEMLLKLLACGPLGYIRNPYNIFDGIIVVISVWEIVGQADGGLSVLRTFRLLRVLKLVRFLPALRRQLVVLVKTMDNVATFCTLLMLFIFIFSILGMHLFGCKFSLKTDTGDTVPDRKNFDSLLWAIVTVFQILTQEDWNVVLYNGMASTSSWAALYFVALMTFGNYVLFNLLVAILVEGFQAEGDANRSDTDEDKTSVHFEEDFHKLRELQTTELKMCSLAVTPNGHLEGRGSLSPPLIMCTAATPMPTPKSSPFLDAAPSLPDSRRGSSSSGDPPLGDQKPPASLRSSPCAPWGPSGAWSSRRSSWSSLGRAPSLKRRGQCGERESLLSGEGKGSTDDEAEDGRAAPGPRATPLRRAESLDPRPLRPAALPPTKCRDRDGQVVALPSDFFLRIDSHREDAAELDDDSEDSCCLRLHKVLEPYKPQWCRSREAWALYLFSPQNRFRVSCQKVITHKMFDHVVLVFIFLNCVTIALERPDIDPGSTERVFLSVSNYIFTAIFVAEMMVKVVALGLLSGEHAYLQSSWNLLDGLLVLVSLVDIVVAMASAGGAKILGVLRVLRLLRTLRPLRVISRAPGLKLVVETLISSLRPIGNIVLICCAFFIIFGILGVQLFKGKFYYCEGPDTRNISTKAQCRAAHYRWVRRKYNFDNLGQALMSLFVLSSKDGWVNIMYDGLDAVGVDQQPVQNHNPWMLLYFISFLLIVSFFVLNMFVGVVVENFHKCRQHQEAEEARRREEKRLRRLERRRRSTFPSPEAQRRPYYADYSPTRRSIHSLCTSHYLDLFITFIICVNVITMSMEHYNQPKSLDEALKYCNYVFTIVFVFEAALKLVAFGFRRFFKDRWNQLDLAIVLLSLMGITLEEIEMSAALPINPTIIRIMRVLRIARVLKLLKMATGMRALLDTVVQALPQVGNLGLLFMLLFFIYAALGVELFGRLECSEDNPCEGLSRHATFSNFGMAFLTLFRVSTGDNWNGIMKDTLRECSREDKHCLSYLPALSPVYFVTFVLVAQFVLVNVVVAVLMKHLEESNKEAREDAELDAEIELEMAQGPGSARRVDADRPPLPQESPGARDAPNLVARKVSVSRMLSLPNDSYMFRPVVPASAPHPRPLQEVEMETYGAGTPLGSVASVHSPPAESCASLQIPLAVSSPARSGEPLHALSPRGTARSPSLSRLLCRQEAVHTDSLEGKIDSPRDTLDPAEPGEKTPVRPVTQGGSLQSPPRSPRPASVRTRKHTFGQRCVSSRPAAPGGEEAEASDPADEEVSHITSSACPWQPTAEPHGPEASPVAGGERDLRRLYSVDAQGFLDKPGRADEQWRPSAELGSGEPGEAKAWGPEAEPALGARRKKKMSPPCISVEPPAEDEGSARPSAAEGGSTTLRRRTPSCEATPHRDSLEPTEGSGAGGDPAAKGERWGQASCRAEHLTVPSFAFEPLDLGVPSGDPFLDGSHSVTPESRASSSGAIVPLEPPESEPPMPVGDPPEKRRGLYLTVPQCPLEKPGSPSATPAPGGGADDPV

Structure (SMILES): O=C(CN1CCNCC1=O)Nc1cc(F)c(F)cc1F [Compound 2, 2-(2-oxopiperazin-1-yl)-N-(2,4,5-trifluorophenyl)acetamide]
Fraction of current recovered at 5.1 s interval ([1]; 5.1 s interval): 0.98
Fraction current remaining at −40 mV ([1]; at −40 mV): 0.58
V1/2 fast inactivation [1, 5]: −65 mV
V1/2 slow inactivation [1, 5]: −80 mV

Structure (SMILES): O=C1CNCCN1C(=O)CNc1cc(F)cc(F)c1 [Compound 3, 1-(2-(3,5-difluorophenylamino)acetyl)piperazin-2-one]
Rat SNL Tactile Allodynia (% Antiallodynia) ([2]; 1 hour): 1%
Rat SNL Tactile Allodynia (% Antiallodynia) ([2]; 4 hours): 4%

Structure (SMILES): O=C1CN(C(=O)CNc2cc(C(F)(F)F)cc(C(F)(F)F)c2)CCN1 [Compound 10, 4-(2-(3,5-bis(trifluoromethyl)phenylamino)acetyl)piperazin-2-one]
Fraction current remaining ([3]; concentration tested 10 μM): 0.91
Fraction current remaining ([3]; concentration tested 100 μM): 0.74
Rat SNL Tactile Allodynia (% Antiallodynia) ([2]; 1 hour): 10%
Rat SNL Tactile Allodynia (% Antiallodynia) ([2]; 2 hours): 13%
Rat SNL Tactile Allodynia (% Antiallodynia) ([2]; 4 hours): 15%
Dose Normalized AUC [4]: 1,192 nM*h
Dose Normalized Cmax [4]: 355 nM
Tmax [4]: 72 min

Structure (SMILES): O=C1CN(C(=O)CNc2cc(F)cc(C(F)(F)F)c2)CCN1 [Compound 11, 4-(2-(3-fluoro-5-(trifluoromethyl)phenylamino)acetyl)piperazin-2-one]
Rat SNL Tactile Allodynia (% Antiallodynia) ([2]; 1 hour): 9%
Rat SNL Tactile Allodynia (% Antiallodynia) ([2]; 2 hours): 4%
Rat SNL Tactile Allodynia (% Antiallodynia) ([2]; 4 hours): 1%

Structure (SMILES): CC1(C)C(=O)NCCN1C(=O)CNc1cc(C(F)(F)F)cc(C(F)(F)F)c1 [Compound 12, 4-(2-(3,5-bis(trifluoromethyl)phenylamino)acetyl)-3,3-dimethylpiperazin-2-one]
Rat SNL Tactile Allodynia (% Antiallodynia) ([2]; 1 hour): 9%
Rat SNL Tactile Allodynia (% Antiallodynia) ([2]; 2 hours): 11%
Rat SNL Tactile Allodynia (% Antiallodynia) ([2]; 4 hours): 42%

The next lines start with results.

Dose Normalized AUC [4]: 458 nM·h
Dose Normalized Cmax [4]: 172 nM
Tmax [4]: 40.2 min
Structure (SMILES): CC1(C)CN(CC(=O)Nc2cc(C(F)(F)F)cc(C(F)(F)F)c2)C(=O)CN1 [Compound 13, N-(3,5-bis(trifluoromethyl)phenyl)-2-(5,5-dimethyl-2-oxopiperazin-1-yl)acetamide]
Rat SNL Tactile Allodynia (% Antiallodynia) ([2]; 1 hour): 16%
Rat SNL Tactile Allodynia (% Antiallodynia) ([2]; 2 hours): 8%
Rat SNL Tactile Allodynia (% Antiallodynia) ([2]; 4 hours): 5%
Anti-allodynia in rat SNL tactile allodynia (in words) ([2]; at 60 minutes compared to baseline and post-SNL): significant anti-allodynia

Fraction current remaining ([3]; concentration tested 30 μM): 0.87
Structure (SMILES): O=C(CN1CCNCC1=O)NCc1cc(C(F)(F)F)cc(C(F)(F)F)c1 [Compound 20, N-(3,5-bis(trifluoromethyl)benzyl)-2-(2-oxopiperazin-1-yl)acetamide]

Fraction current remaining ([3]; concentration tested 30 μM): 0.91
Structure (SMILES): O=C(NCCN1CCNCC1=O)c1cc(F)cc(C(F)(F)F)c1 [Compound 23, 3-fluoro-N-(2-(2-oxopiperazin-1-yl)ethyl)-5-(trifluoromethyl)benzamide]
